Measured values taken from patent US12595230B2, “Substituted 6,7-dihydro-5H-benzo[7]annulene compounds and their derivatives, processes for their preparation and therapeutic uses thereof” (Sanofi, priority 2020, dated 2026).

Target: T1, ERα (Homo sapiens, UniProt P03372)
T1 construct: host or cells: MCF7
T1 sequence (P03372 1-595): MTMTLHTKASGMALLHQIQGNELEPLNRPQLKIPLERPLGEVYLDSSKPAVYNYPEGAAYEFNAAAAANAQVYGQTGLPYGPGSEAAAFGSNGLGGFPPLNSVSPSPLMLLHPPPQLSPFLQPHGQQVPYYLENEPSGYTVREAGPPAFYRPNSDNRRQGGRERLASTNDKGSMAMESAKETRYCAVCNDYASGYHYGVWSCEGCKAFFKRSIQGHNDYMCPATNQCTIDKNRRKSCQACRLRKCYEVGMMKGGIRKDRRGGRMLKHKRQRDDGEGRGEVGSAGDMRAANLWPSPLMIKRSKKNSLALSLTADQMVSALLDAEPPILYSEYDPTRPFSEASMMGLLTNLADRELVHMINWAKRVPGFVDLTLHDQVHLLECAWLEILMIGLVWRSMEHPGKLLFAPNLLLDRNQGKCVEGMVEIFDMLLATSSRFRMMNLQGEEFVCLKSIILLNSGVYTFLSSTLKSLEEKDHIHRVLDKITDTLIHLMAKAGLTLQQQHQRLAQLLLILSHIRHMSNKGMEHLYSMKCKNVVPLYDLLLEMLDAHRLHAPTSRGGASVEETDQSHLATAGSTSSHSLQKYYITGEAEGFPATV
Experiment: Estrogen receptor degradation activity: breast cancer cell ERα in cell western assay (MCF7 cells)
Assay type: cell-based
Conditions: for % Degradation At 0.3 μM: 4 hours, relative to fulvestrant 0.1 μM positive control; for DC50: read-out: Degradation IC50
Outline: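 Compounds were applied to MCF7 cells in stripped-serum, phenol red-free medium for 4 h at final 0.3–0.0000018 μM, with fulvestrant (0.1 μM) as control. Value: IC50 (nM) for 50% ERα degradation.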

[1] = 4 hours post compound addition, concentration which degrades 50% of the estrogen receptor

Row | Compound | % Degradation At 0.3 μM | DC50 [1] | IC50 [1]
1 | Cl.[2H]C([2H])(CCF)N1CC(Cc2ccc(C3=C(c4ccc(Cl)cc4Cl)CCCc4cc(C(=O)O)ccc43)cc2)C1 [Example 208, 8-(2,4-dichlorophenyl)-9-(4-((1-(3-fluoropropyl-1,1-d2)azetidin-3-yl)methyl)phenyl)-6,7-dihydro-5H-benzo[7]annulene-3-carboxylic acid hydrochloride] | 95% | 0.2 nM | –
2 | FCCCN1CC(Cc2ccc(C3=C(c4ccccc4Cl)CCCc4ccccc43)cc2)C1 [Example 304, 3-(4-(8-(2-chlorophenyl)-6,7-dihydro-5H-benzo[7]annulen-9-yl)benzyl)-1-(3-fluoropropyl)azetidine] | 89% | 17.4 nM | –
3 | O=C([O-])c1ccc2c(c1)CCCC(c1cc(C(F)F)ccc1F)=C2c1ccc(CC2CN(CCCF)C2)cc1.[Na+] [Example 273, sodium 8-(5-(difluoromethyl)-2-fluorophenyl)-9-(4-((1-(3-fluoropropyl)azetidin-3-yl)methyl)phenyl)-6,7-dihydro-5H-benzo[7]annulene-3-carboxylate] | 89% | 0.6 nM | –
4 | O=C(O)c1ccc2c(c1)CCCC(C1C[C@H]3CCC[C@H]3C1)=C2c1ccc(CC2CN(CCCF)C2)cc1 (single isomer, unassigned) [Example 336, 9-(4-((1-(3-fluoropropyl)azetidin-3-yl)methyl)phenyl)-8-(octahydropentalen-2-yl)-6,7-dihydro-5H-benzo[7]annulene-3-carboxylic acid] | 86% | 0.9 nM | –
5 | O=C(O)c1ccc2c(c1)CCCC(c1cccc(CC(F)(F)F)c1)=C2c1ccc(CC2CN(CCCF)C2)cc1 [Example 298, 9-(4-((1-(3-fluoropropyl)azetidin-3-yl)methyl)phenyl)-8-(3-(2,2,2-trifluoroethyl)phenyl)-6,7-dihydro-5H-benzo[7]annulene-3-carboxylic acid] | 82% | 0.5 nM | –
6 | O=C(O)c1ccc2c(c1)CCCC(c1cccc(C(F)(F)F)c1F)=C2c1ccc(CC2CN(CCC(F)F)C2)cc1 [Example 288, 9-(4-((1-(3,3-difluoropropyl)azetidin-3-yl)methyl)phenyl)-8-(2-fluoro-3-(trifluoromethyl)phenyl)-6,7-dihydro-5H-benzo[7]annulene-3-carboxylic acid] | 81% | 0.5 nM | –
7 | NC(c1ccc(C2=C(c3ccc(Cl)cc3Cl)CCCc3cc(C(=O)O)ccc32)cc1)C1CN(CCCF)C1 (single isomer, unassigned; isomer 1) [Example 243, 9-(4-(amino(1-(3-fluoropropyl)azetidin-3-yl)methyl)phenyl)-8-(2,4-dichlorophenyl)-6,7-dihydro-5H-benzo[7]annulene-3-carboxylic Acid Isomer 1] | 78% | 15.6 nM | –
8 | O=C([O-])c1ccc2c(c1)CCCC(c1cc(F)cc(C(F)F)c1)=C2c1ccc(CC2CN(CCCF)C2)cc1.[Na+] [Example 251, sodium 8-(3-(difluoromethyl)-5-fluorophenyl)-9-(4-((1-(3-fluoropropyl)azetidin-3-yl)methyl)phenyl)-6,7-dihydro-5H-benzo[7]annulene-3-carboxylate] | 87% | 0.7 nM | –
9 | O=C(O)c1ccc2c(c1)CCCC(c1cccc(C(F)(F)F)c1Cl)=C2c1ccc(CC2CN(CCC(F)(F)F)C2)cc1 [Example 257, 8-(2-chloro-3-(trifluoromethyl)phenyl)-9-(4-((1-(3,3,3-trifluoropropyl)azetidin-3-yl)methyl)phenyl)-6,7-dihydro-5H-benzo[7]annulene-3-carboxylic acid] | 83% | 0.7 nM | –
10 | N#Cc1cc2c(cc1C(=O)O)CCCC(c1ccc(Cl)cc1Cl)=C2c1ccc(CC2CN(CCCF)C2)cc1 [Example 245, 2-cyano-8-(2,4-dichlorophenyl)-9-(4-((1-(3-fluoropropyl)azetidin-3-yl)methyl)phenyl)-6,7-dihydro-5H-benzo[7]annulene-3-carboxylic acid] | 100% | 269 nM | –
11 | O=C(O)c1ccc2c(c1)CCCC(c1ccc(Cl)cc1Cl)=C2c1ccc(C(=O)C2CN(CCCF)C2)cc1 [Example 39, 8-(2,4-Dichlorophenyl)-9-(4-(1-(3-fluoropropyl)azetidine-3-carbonyl)phenyl)-6,7-dihydro-5H-benzo[7]annulene-3-carboxylic Acid] | 92% | 1.2 nM | –
12 | O=C(O)c1ccc2c(c1)CCCC(c1ccccc1CC(F)(F)F)=C2c1ccc(CC2CN(CCCF)C2)cc1 [Example 301, 9-(4-((1-(3-fluoropropyl)azetidin-3-yl)methyl)phenyl)-8-(2-(2,2,2-trifluoroethyl)phenyl)-6,7-dihydro-5H-benzo[7]annulene-3-carboxylic acid] | 89% | 0.5 nM | –
13 | Cc1c(C2=C(c3ccc(CC4CN(CCC(F)(F)F)C4)cc3)c3ccc(C(=O)O)cc3CCC2)cccc1C(F)(F)F [Example 256, 8-(2-methyl-3-(trifluoromethyl)phenyl)-9-(4-((1-(3,3,3-trifluoropropyl)azetidin-3-yl)methyl)phenyl)-6,7-dihydro-5H-benzo[7]annulene-3-carboxylic acid] | 82% | 1 nM | –
14 | O=C(O)c1ccc2c(c1)CCCC(c1cc(F)c(F)c(F)c1)=C2c1ccc(CC2CN(CCCF)C2)cc1 [Example 267, 9-(4-((1-(3-fluoropropyl)azetidin-3-yl)methyl)phenyl)-8-(3,4,5-trifluorophenyl)-6,7-dihydro-5H-benzo[7]annulene-3-carboxylic acid] | 89% | 0.8 nM | –
15 | Cl.O=C(O)c1ccc2c(c1)CCCC(c1ccc(Cl)c(F)c1Cl)=C2c1ccc(CC2CN(CCCF)C2)cc1 [Example 211, 8-(2,4-dichloro-3-fluorophenyl)-9-(4-((1-(3-fluoropropyl)azetidin-3-yl)methyl)phenyl)-6,7-dihydro-5H-benzo[7]annulene-3-carboxylic acid hydrochloride] | 96% | – | 0.1 nM

Further lines, results first:

Row | % Degradation At 0.3 μM | DC50 [1] | IC50 [1] | Compound
16 | 92% | 0.3 nM | – | O=C(O)c1ccc2c(c1)CCCC(c1cccc(F)c1F)=C2c1ccc(CC2CN(CCCF)C2)cc1 [Example 22, 8-(2,3-difluorophenyl)-9-(4-((1-(3-fluoropropyl)azetidin-3-yl)methyl)phenyl)-6,7-dihydro-5H-benzo[7]annulene-3-carboxylic acid]
17 | 91% | 0.4 nM | – | Cc1ccc(C2=C(c3ccc(CC4CN(CCCF)C4)cc3)c3ccc(C(=O)O)cc3CCC2)c(F)c1.Cl [Example 11, 8-(2-fluoro-4-methylphenyl)-9-(4-((1-(3-fluoropropyl)azetidin-3-yl)methyl)phenyl)-6,7-dihydro-5H-benzo[7]annulene-3-carboxylic acid]
18 | 92% | 0.3 nM | – | Cc1ccc(C2=C(c3ccc(CC4CN(CCCF)C4)cc3)c3ccc(C(=O)O)cc3CCC2)c(C)c1.Cl [Example 10, 8-(2,4-dimethylphenyl)-9-(4-((1-(3-fluoropropyl)azetidin-3-yl)methyl)phenyl)-6,7-dihydro-5H-benzo[7]annulene-3-carboxylic acid]
19 | 91% | 0.3 nM | – | Cc1cc(Cl)ccc1C1=C(c2ccc(CC3CN(CCCF)C3)cc2)c2ccc(C(=O)O)cc2CCC1 [Example 25, 8-(4-chloro-2-methylphenyl)-9-(4-((1-(3-fluoropropyl)azetidin-3-yl)methyl)phenyl)-6,7-dihydro-5H-benzo[7]annulene-3-carboxylic acid]
20 | 87% | 1.6 nM | – | CC(C)C1CCc2cc(C(=O)O)ccc2C(c2ccc(CC3CN(CCCF)C3)cc2)=C1c1ccc(Cl)cc1 (racemic) [Example 317, 8-(4-chlorophenyl)-9-(4-((1-(3-fluoropropyl)azetidin-3-yl)methyl)phenyl)-7-isopropyl-6,7-dihydro-5H-benzo[7]annulene-3-carboxylic acid]
21 | 92% | 0.4 nM | – | COc1ccc(C2=C(c3ccc(CC4CN(CCCF)C4)cc3)c3ccc(C(=O)O)cc3CCC2)c(Cl)c1 [Example 24, 8-(2-chloro-4-methoxyphenyl)-9-(4-((1-(3-fluoropropyl)azetidin-3-yl)methyl)phenyl)-6,7-dihydro-5H-benzo[7]annulene-3-carboxylic acid]
22 | 86% | 0.3 nM | – | O=C(O)c1ccc2c(c1)CCCC(c1ccc(F)c(F)c1)=C2c1ccc(CC2CN(CCCF)C2)cc1 [Example 45, 8-(3,4-difluorophenyl)-9-(4-((1-(3-fluoropropyl)azetidin-3-yl)methyl)phenyl)-6,7-dihydro-5H-benzo[7]annulene-3-carboxylic acid]
23 | 87% | 1 nM | – | CCC1CCc2cc(C(=O)O)ccc2C(c2ccc(CC3CN(CCCF)C3)cc2)=C1c1ccc(Cl)cc1 (racemic) [Example 315, 8-(4-chlorophenyl)-7-ethyl-9-(4-((1-(3-fluoropropyl)azetidin-3-yl)methyl)phenyl)-6,7-dihydro-5H-benzo[7]annulene-3-carboxylic acid]
